In US9624167B2, “N-(4-hydroxy-4-methyl-cyclohexyl)-4-phenyl-benzenesulfonamides and N-(4-hydroxy-4-methyl-cyclohexyl)-4-(2-pyridyl)benzenesulfonamides and their therapeutic use” (PIMCO 2664 LIMITED, priority 2013, dated 2017):
Where two headings read alike, the source gives them in different places. Marks after values point to notes of the source that are not given here.

What was measured:
[1] = tested on: J774 macrophages; assay: Resazurin Macrophage J774 Viability Assay; format: cell-based; conditions: Mus musculus, 12 point concentration range 10 μM to 0.5 nM, n = 4 replicates, mean of 3 independent experiments, 72 hour incubation, read-out: IC50 (2)
[2] = Human Liver Microsomal Stability; format: in vitro ADME; conditions: both sexes, pooled liver microsomes, 1 μM compound
Method: Metabolic stability was measured by determining the rate of disappearance of compound in the presence of human liver microsomal preparations, as quantified by liquid chromatography mass-spectrometry and […] mass-spectrometry (LC-MS/MS).
Metabolic stability of test compounds was measured by determination of the rate of disappearance of the compound when incubated in the presence of human liver microsomes. Liver microsomes are prepared from the endoplasmic reticulum of hepatocytes and are the primary source of the most important enzymes (cytochrome P450s) involved in drug metabolism. Study of drug stability in the presence of liver microsomes is accepted as a valuable model permitting rapid prediction of in vivo drug stability.
Human liver microsomes were obtained from a commercial source. Test compounds (1 μM) were incubated with pooled liver microsomes (male and female). Samples were incubated for a 60 minute period and removed at up to 6 time points and analysed by LC-MS/MS for the presence/amount of test compounds.
Microsomes (final protein concentration 0.25 or 0.5 mg/mL), 0.1 M phosphate buffer pH 7.4, and test compound (final concentration 1 μM; diluted from 10 mM stock solution to give a final DMSO concentration of 0.1%) were incubated at 37° C. prior to the addition of Nicotinamide adenine dinucleotide phosphate (NADPH, final concentration 1 mM) to initiate the reaction. The final incubation volume was 100 μL. A control incubation was included for each compound tested, where 0.1 M phosphate buffer pH 7.4 was added instead of NADPH. […]
Each compound was incubated for 0, 5, 15, 30, 45 or 60 minutes. The reactions were stopped by the addition of 100 μL ice-cold acetonitrile containing internal standard (0.001 mM glipizide) at the appropriate time points. The incubation plates were centrifuged at 4000 rpm for 15 minutes at 4° C. to precipitate the protein and 0.1 mL aliquots were analysed using LC-MS/MS, with the conditions shown in the following table.
From a plot of the natural logarithm of the peak area ratio (i.e., the ratio of compound peak area:internal standard peak area) against time, the gradient of the line was determined.

[3] = Rodent pharmacokinetics study; format: in vivo, Sprague-Dawley rats; conditions: rat; for i.v. AUC: dosed at 0.5 mg/kg intravenously (*); for p.o. AUC: dosed at 10 mg/kg orally (‡)
[4] = target: T1, hERG ion channel (Homo sapiens, UniProt Q12809); assay: hERG Ion Channel Assay (Q-patch, hERG-CHO cells); format: cell-based; conditions: hERG tail current, hERG-CHO cells, Q-patch; read-out: IC50 (1)
T1 construct: expressed in transfected cells; host or cells: Chinese Hamster Ovary cells (hERG-CHO), stably transfected
T1 sequence (Q12809 whole entry): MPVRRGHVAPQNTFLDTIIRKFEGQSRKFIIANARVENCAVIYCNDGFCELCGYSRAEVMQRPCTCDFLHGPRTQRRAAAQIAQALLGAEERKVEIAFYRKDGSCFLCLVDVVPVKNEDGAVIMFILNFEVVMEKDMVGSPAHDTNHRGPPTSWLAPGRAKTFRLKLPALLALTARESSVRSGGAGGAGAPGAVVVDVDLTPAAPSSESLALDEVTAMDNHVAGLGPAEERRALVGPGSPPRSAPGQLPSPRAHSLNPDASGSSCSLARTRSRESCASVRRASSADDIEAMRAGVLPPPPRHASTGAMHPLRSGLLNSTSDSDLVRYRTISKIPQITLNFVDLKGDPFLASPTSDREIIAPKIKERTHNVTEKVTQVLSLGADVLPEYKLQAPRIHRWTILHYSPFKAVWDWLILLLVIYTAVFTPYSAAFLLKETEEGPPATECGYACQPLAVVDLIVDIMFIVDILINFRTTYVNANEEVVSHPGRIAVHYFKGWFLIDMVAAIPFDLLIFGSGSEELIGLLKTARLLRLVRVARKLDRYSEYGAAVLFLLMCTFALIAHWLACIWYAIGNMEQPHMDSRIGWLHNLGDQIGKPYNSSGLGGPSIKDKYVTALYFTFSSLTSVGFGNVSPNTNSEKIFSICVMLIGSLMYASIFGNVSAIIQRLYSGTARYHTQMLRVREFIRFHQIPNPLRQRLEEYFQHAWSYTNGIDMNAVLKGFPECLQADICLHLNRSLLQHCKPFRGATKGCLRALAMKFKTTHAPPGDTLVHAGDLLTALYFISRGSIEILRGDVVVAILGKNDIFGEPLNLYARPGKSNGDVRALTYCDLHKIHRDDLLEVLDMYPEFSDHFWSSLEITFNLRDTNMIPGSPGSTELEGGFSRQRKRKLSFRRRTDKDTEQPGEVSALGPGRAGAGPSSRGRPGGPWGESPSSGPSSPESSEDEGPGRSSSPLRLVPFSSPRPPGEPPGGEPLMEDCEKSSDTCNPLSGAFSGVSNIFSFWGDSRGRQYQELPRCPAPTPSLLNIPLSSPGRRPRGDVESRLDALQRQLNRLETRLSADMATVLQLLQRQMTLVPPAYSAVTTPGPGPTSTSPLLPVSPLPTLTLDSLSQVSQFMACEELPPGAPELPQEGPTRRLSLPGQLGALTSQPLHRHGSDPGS
Method: The activity of the compounds against the hERG ion channel was tested. The assay was conducted using the automated path-clamp, Q-patch method using stably transfected Chinese Hamster Ovary cells (hERG-CHO). hERG-CHO cells were cultured in F-12 Kaighn's Nutrient Mixture medium (Invitrogen)+10% FBS at 37° C. for 1-3 days. Cells were kept at 30° C. for 24 to 48 hours prior to patch clamping in order to increase the hERG current amplitude. Subsequently, the cells were harvested by trypsinisation, and kept in Serum Free Medium (SFM) in the Q-patch cell preparation state for up to 6 hours at room temperature before being washed and re-suspended in extracellular solution and applied to the patch clamp sites for data recording.
Patch-clamp voltage protocol: After whole cell configuration was achieved, the cell was held at −80 mV. A 50 millisecond pulse to −40 mV was delivered to measure the leaking current, which was subtracted from the tail current on-line. Then the cell was depolarized to +20 mV for 2 seconds, followed by a one second pulse to −40 mV to reveal hERG tail current. This paradigm was delivered once every 5 seconds to monitor the current amplitude.
Extracellular solution: 137 mM NaCl, 4 mM KCl, 1.8 mM CaCl2, 1 mM MgCl2, 10 mM D(+)-glucose, 10 mM HePES buffer (pH adjusted to 7.4 with NaOH).
After the whole cell configuration was achieved, the extracellular solution (control) was applied first and the cell was stabilized for 2 minutes in extracellular solution. The test compound was then applied from low concentrations to high concentrations cumulatively. The cell was incubated with each test concentration for 5 minutes. During each incubation, the cell was repetitively stimulated using the voltage protocol described above, and the tail current amplitude was continuously monitored.
• (1) Peak tail current >100 pA in control. • (2) Initial run-down <30% and the run-down stops before first application of the test compound. • (3) Leak currents <50% of the control peak tail currents at any time. • (4) rs<20 MΩ throughout the experiment.
The degree of inhibition (%) was obtained by measuring the tail current amplitude, induced by a one second test pulse to −40 mV after a two second pulse to +20 mV, before and after incubation with the test compound. The difference in current was normalized to control and multiplied by 100 in order to obtain the percent inhibition.
Concentration (log) response curves were fitted to a logistic equation (three parameters assuming complete block of the current at very high test compound concentrations) to generate estimates of the 50% inhibitory concentration (IC50). The concentration-response relationship of each compound was constructed from the percentage reductions of current amplitude by sequential concentrations.

[5] = Maximum Tolerated Dose, Sprague-Dawley rats; conditions: rat, in vivo, oral, ascending dose
Method: The acute safety of the compounds was assessed in rats in order to enable determination of the maximum tolerated dose (MTD), an indication of a compound's safety in animals. The higher the MTD, the greater is the potential safety of the compound being tested.
Two male and two female Sprague-Dawley rats, aged 8-12 weeks, were dosed at each dose level in an ascending dose study design. The test compounds were administered orally as a suspension formulated in 0.5% carboxymethylcellulose (CMC)/0.1% Tween-80 in a dose volume of 10 mL/kg. Animals were given free access to food throughout the study.
Animals were observed on at least two occasions during the first hour following dosing, approximately 30 minutes apart, and thereafter at hourly intervals for the remainder of the dosing day for at least 4 hours. […] The nature and severity, where appropriate, of the clinical signs and time were recorded at each observation. Observations included changes in the skin, fur, eyes, and mucous membranes, and also the respiratory, circulatory, autonomic, and central nervous system, as well as somatomotor activity and behaviour pattern. Particular attention was directed towards the observation of tremors, convulsions, salivation, diarrhoea, lethargy, sleep, and coma.
At the completion of the study, the results were expressed as the maximum tolerated dose for each compound, this being the highest of each without unacceptable toxicity.
The maximum dose without unacceptable side-effects was determined to be the MTD (expressed in mg/kg).

[6] = pH 7.4, human liver microsomes 0.5 mg/mL protein, 6 time points 0-60 min, two replicates, read-out: T1/2 (2)
[7] = pH 7.4, human liver microsomes 0.25 mg/mL protein, 5 time points 0-60 min, one replicate, read-out: T1/2 (1)
[8] = female Sprague-Dawley rats, read-out: Maximum tolerated dose, Females
[9] = male Sprague-Dawley rats, read-out: Maximum tolerated dose, Males

C[C@]1(O)CC[C@@H](NS(=O)(=O)c2ccc(-c3ccc(F)cc3C(F)(F)F)cc2)CC1 [HMC-C-02-B, 4′-Fluoro-N-((1s,4s)-4-hydroxy-4-methylcyclohexyl)-2′-(trifluoromethyl)-[1,1′-biphenyl]-4-sulfonamide]
IC50 [1]: 1740 nM
half-life at 1 μM [2, 6]: 0.3 h

C[C@]1(O)CC[C@@H](NS(=O)(=O)c2ccc(-c3ccc(F)cc3F)c(F)c2)CC1 [HMC-C-04-B, 2,2′,4′-Trifluoro-N-((1s,4s)-4-hydroxy-4-methylcyclohexyl)-[1,1′-biphenyl]-4-sulfonamide]
IC50 [1]: 60 nM
half-life at 1 μM [2, 6]: 1.78 h
i.v. AUC [3]: 1589* ng·min/mL

C[C@]1(O)CC[C@H](NS(=O)(=O)c2ccc(-c3ccc(F)cc3F)c(F)c2)CC1 [HMC-C-04-A, 2,2′,4′-Trifluoro-N-((1r,4r)-4-hydroxy-4-methylcyclohexyl)-[1,1′-biphenyl]-4-sulfonamide]
IC50 [1]: 500 nM
half-life at 1 μM [2, 6]: 1.67 h

C[C@]1(O)CC[C@H](NS(=O)(=O)c2ccc(-c3ccc(F)cc3C(F)(F)F)cc2)CC1 [HMC-C-02-A, 4′-Fluoro-N-((1r,4r)-4-hydroxy-4-methylcyclohexyl)-2′-(trifluoromethyl)biphenyl-4-sulfonamide]
IC50 [1]: 14700 nM
IC50 [4]: 25000 nM
half-life at 1 μM [2, 7]: 0.917 h
MTD [5, 8]: > 200 mg/kg
MTD [5, 9]: > 200 mg/kg

Cc1cc(S(=O)(=O)N[C@H]2CC[C@H](O)CC2)ccc1-c1ccc(F)cc1F [ABD735]
half-life at 1 μM [2, 7]: 8.73 h
MTD [5, 8]: 20 mg/kg
MTD [5, 9]: 10 mg/kg
p.o. AUC [3]: 8965 ng·min/mL

O=S(=O)(N[C@H]1CC[C@H](O)CC1)c1ccc(-c2ncc(Cl)cc2Cl)cc1 [ABD836, reference compound]
half-life at 1 μM [2, 7]: > 15 h

C[C@]1(O)CC[C@H](NS(=O)(=O)c2ccc(-c3ccc(Cl)cc3C#N)cc2)CC1 [HMC-C-01-A, 4′-Chloro-2′-cyano-N-((1r,4r)-4-hydroxy-4-methylcyclohexyl)biphenyl-4-sulfonamide]
IC50 [1]: 1890 nM
IC50 [4]: 19300 nM
half-life at 1 μM [2, 7]: 1.37 h
MTD [5, 8]: 70 mg/kg
MTD [5, 9]: 70 mg/kg

C[C@]1(O)CC[C@@H](NS(=O)(=O)c2ccc(-c3ncc(Cl)cc3Cl)cc2)CC1 [HMC-N-03-B, 4-(3,5-Dichloropyridin-2-yl)-N-((1s,4s)-4-hydroxy-4-methylcyclohexyl)benzenesulfonamide]
IC50 [1]: 80 nM
half-life at 1 μM [2, 6]: 1.17 h
i.v. AUC [3]: 1380* ng·min/mL

C[C@]1(O)CC[C@@H](NS(=O)(=O)c2ccc(-c3ncc(F)cc3F)cc2)CC1 [HMC-N-02-B, 4-(3,5-Difluoropyridin-2-yl)-N-((1s,4s)-4-hydroxy-4-methylcyclohexyl)benzenesulfonamide]
IC50 [1]: 360 nM
half-life at 1 μM [2, 6]: 2.8 h

C[C@]1(O)CC[C@H](NS(=O)(=O)c2ccc(-c3c(F)cc(F)cc3F)cc2)CC1 [HMC-C-03-A, 2′,4′,6′-Trifluoro-N-((1r,4r)-4-hydroxy-4-methylcyclohexyl)biphenyl-4-sulfonamide]
IC50 [1]: 410 nM
IC50 [4]: > 30000 nM
half-life at 1 μM [2, 7]: 1.4 h
MTD [5, 8]: 30 mg/kg
MTD [5, 9]: 30 mg/kg

C[C@]1(O)CC[C@H](NS(=O)(=O)c2ccc(-c3ncc(F)cc3F)c(F)c2)CC1 [HMC-N-01-A, 4-(3,5-Difluoropyridin-2-yl)-3-fluoro-N-((1r,4r)-4-hydroxy-4-methylcyclohexyl)benzenesulfonamide]
IC50 [1]: 2660 nM
IC50 [4]: 183000 nM
half-life at 1 μM [2, 7]: 2.92 h
MTD [5, 8]: 80 mg/kg
MTD [5, 9]: 80 mg/kg

C[C@]1(O)CC[C@@H](NS(=O)(=O)c2ccc(-c3ccc(Cl)cc3C#N)cc2)CC1 [HMC-C-01-B, 4′-Chloro-2′-cyano-N-((1s,4s)-4-hydroxy-4-methylcyclohexyl)-[1,1′-biphenyl]-4-sulfonamide]
IC50 [1]: 160 nM
half-life at 1 μM [2, 6]: 1.17 h

C[C@]1(O)CC[C@H](NS(=O)(=O)c2ccc(-c3ncc(Cl)cc3Cl)c(F)c2)CC1 [HMC-N-04-A, 4-(3,5-Dichloropyridin-2-yl)-3-fluoro-N-((1r,4r)-4-hydroxy-4-methylcyclohexyl)benzenesulfonamide]
IC50 [4]: > 30000 nM
half-life at 1 μM [2, 7]: 2.6 h

C[C@]1(O)CC[C@@H](NS(=O)(=O)c2ccc(-c3ccc(F)cc3F)cc2)CC1 [ABD899, reference compound]
IC50 [4]: 2900 nM
half-life at 1 μM [2, 7]: 1.2 h
half-life at 1 μM [2, 6]: 1.75 h
MTD [5, 8]: 30 mg/kg
MTD [5, 9]: 30 mg/kg
p.o. AUC [3]: 10740 ng·min/mL

C[C@]1(O)CC[C@@H](NS(=O)(=O)c2ccc(-c3ncc(F)cc3F)c(F)c2)CC1 [HMC-N-01-B, 4-(3,5-Difluoropyridin-2-yl)-3-fluoro-N-((1s,4s)-4-hydroxy-4-methylcyclohexyl)benzenesulfonamide]
IC50 [1]: 140 nM
half-life at 1 μM [2, 6]: 2.12 h

C[C@]1(O)CC[C@@H](NS(=O)(=O)c2ccc(-c3c(F)cc(F)cc3F)cc2)CC1 [HMC-C-03-B, 2′,4′,6′-Trifluoro-N-((1s,4s)-4-hydroxy-4-methylcyclohexyl)-[1,1′-biphenyl]-4-sulfonamide]
IC50 [1]: 200 nM
half-life at 1 μM [2, 6]: 0.8 h
i.v. AUC [3]: 816* ng·min/mL

Cc1cc(S(=O)(=O)NC2CCC(C)(O)CC2)ccc1-c1ccc(F)cc1F (single isomer, unassigned) [REF001, reference compound]
IC50 [1]: 50 nM
half-life at 1 μM [2, 7]: 0.717 h
MTD [5, 8]: 7.5 mg/kg
MTD [5, 9]: 10 mg/kg
p.o. AUC [3]: 4766 ng·min/mL

C[C@]1(O)CC[C@H](NS(=O)(=O)c2ccc(-c3ccc(F)cc3F)cc2)CC1 [ABD900, reference compound]
half-life at 1 μM [2, 6]: 1.45 h
